Laboratory results from US20240132517A1, “MACROCYCLIC COMPOUND, PHARMACEUTICAL COMPOSITION, AND USE THEREOF” (GOHARMONY THERAPEUTICS (SHENZHEN) CO., LTD., priority 2021, published 2024).

How the values were obtained:
c-Met = c-Met (Homo sapiens (Human), UniProt P08581); experiment: Enzymatic inhibitory activity, mobility shift assay, c-Met; format: biochemical; settings: kinase mobility shift assay
Source text: (§1) Compounds against MET, SRC and CSF1R kinases were screened by use of mobility shift assay. The core of this screening platform was the MSA based on microfluidic chip technology, which applied the basic idea of capillary electrophoresis to a microfluidic environment. The substrate used in the experiment was a polypeptide with fluorescent labeling. Under the catalysis of the enzyme in the reaction system, the substrate was converted into a product, and it carried charge also changed accordingly. MSA utilized the difference in charge between the substrate and the product to separate them, and detect them separately.
(§2) The operation method is briefly described as follows:
(§3) The powders of the compound were dissolved in 100% DMSO to make a 10 mM stock solution. The initial test concentration of the compound was 10,000 nM, 3-fold serial dilution, 10 concentrations, and repeated hole detection. […] A stop detection solution was added to stop the enzymatic reaction, and the conversion rate was read with Caliper EZ Reader II.
(§4) wherein: Conversion%_sample is the conversion rate reading of the sample; Conversion%_min: the average value of the negative control wells, representing the conversion rate readings of the wells without enzyme activity; Conversion%_max: the average ratio of the positive control wells, representing the conversion rate readings of the wells without compound inhibition.
(§5) Dose-response curve fitting: with the log value of the concentration as the X-axis, and the percentage inhibition rate as the Y-axis, the log(inhibitor) vs. response-Variable slope of the analysis software GraphPad Prism 5 was used to fit the dose-response curve, thereby obtaining IC50 values of each compound against inhibition of enzyme activity.

SRC = SRC (Homo sapiens (Human), UniProt P12931); experiment: Enzymatic inhibitory activity, mobility shift assay, SRC; settings: read-out: SRC IC50; kinase mobility shift assay
Method: The powders of the compound were dissolved in 100% DMSO to make a 10 mM stock solution. […] A stop detection solution was added to stop the enzymatic reaction, and the conversion rate was read with Caliper EZ Reader II.

CSF1R = CSF1R (Homo sapiens (Human), UniProt P07333); experiment: Enzymatic inhibitory activity, mobility shift assay, CSF1R; format: biochemical; settings: kinase mobility shift assay
Source text: as §1, §2, §3, §4, §5

[1] = Blood-brain distribution experiments in rats; format: in vivo; settings: male SD rats
Method: The male SD rats were divided into groups, 12 in each group, and the compound of the Examples (10 mg/kg) was administered orally or by gavage. The animals were fasted overnight before the experiments, and the fasting time was from 10 hours before administration to 4 hours after administration. According to the previous pharmacokinetic data, the rats in the Example 1 group were killed at 0.25, 0.5, 2 and 6 hours after administration; the rats in the TPX-0022 group were killed at 0.25, 1, 4 and 8 hours after administration, and blood and brain tissue were collected. After the samples were processed, they were centrifuged at 4° C., 4000 rpm for 5 min, and the plasma was transferred to a centrifuge tube and stored at −80° C.until analysis. Plasma samples were extracted by protein precipitation, and the extract was analyzed by LC/MS/MS.

SNU-5 cells = experiment: Cell viability assay against SNU-5 cells (CellTiter-Glo); format: cell-based; settings: Homo sapiens, 72 hours
Method: Human gastric cancer cell line SNU-5 culture medium was IMDM basal culture medium supplemented with 10% FBS (fetal bovine serum) and 1% P/S (penicillin/streptomycin), Ba/F3-TEL-CSF1R stably transfected cell line medium was RPMI-1640 medium supplemented with 10% FBS and 1% P/S. Both cell lines were cultured in a carbon dioxide incubator at 37° C. with a CO2 concentration of 5%.
(§6) In the assay of compounds, SNU-5 and Ba/F3-TEL-CSF1R cells were plated in 96-well cell culture plates (Corning, Cat# 3610) at a concentration of 3000 cells/100 μL per well, and cultured overnight. Starting from 200 μM, the compound was subjected to a 3-fold gradient with DMSO, and a total of 9 concentrations were diluted to prepare a 200-fold drug solution. 3 μl of the 200-fold concentration compound was diluted with 197 μl of complete medium to obtain a 3-fold concentration compound. 50 μl of the latter was took and added to the cell well plate, and culture was continued for 72 hours. The cell culture plate was equilibrated to room temperature before assay, and 40 μL of CellTiter-Glo (Promega, Cat# G7571) was added to each well, and the cells were lysed by shaking for two minutes. The cell plate was then left at room temperature for 60 minutes to stabilize the luminescence signal. Luminescence values were read using a PerkinElemer Envision multifunctional plate reader.
(§7) Data analysis: • Luminescence values were processed using the following formula:
(§8) %Inh=(Max signal−Compound signal)/(Max signal−Min signal)×100 • Max signal: value of a DMSO treatment group; • Min signal: value of a blank medium group.
(§9) The processed data were analyzed using GraphPad Prism 5.0 software, and nonlinear S-curve regression was used to fit the data to derive dose-response curves from which IC50 values were calculated.

[2] = Pharmacokinetic experiments in rats; format: in vivo; settings: male SD rats, 1 mg/kg, oral gavage and intravenous injection
Method: Male SD rats were divided into groups, 3 rats in each group, and the compound of the Examples (1 mg/kg) was given by oral, single gavage and intravenous injection, respectively. The animals were fasted overnight before the experiments, and the fasting time was from 10 hours before administration to 4 hours after administration. Blood was collected at 0.25, 0.5, 1, 2, 4, 8 and 24 hours after administration in the oral group, and at 0.083, 0.25, 0.5, 1, 2, 4, 8 and 24 hours after injection in the intravenous injection group. After anesthesia with isoflurane using a small animal anesthesia machine, 0.3 mL of whole blood was collected through the fundus venous plexus and placed in a heparin anticoagulant tube. The sample was centrifuged at 4° C.and 4000 rpm for 5 minutes, the plasma was transferred to a centrifuge tube, and placed at […] and stored until analysis. Plasma samples were extracted by protein precipitation, and the extract was analyzed by LC/MS/MS.

HCC827 cells = experiment: Cell viability assay against HCC827 cells (CellTiter-Glo); format: cell-based, human; settings: 72 hours
Method: Human non-small cell lung cancer cells, HCC827 cells, were cultured in an incubator (37° C., 5% CO2) with 1640 medium plus 10% FBS (fetal bovine serum) and 1% P/S (penicillin/streptomycin). In the assay of the compound, the HCC827 cells were plated in a 96-well transparent flat-bottomed black wall plate (Corning, Cat# 3603) at a concentration of 3000 cells/90 uL per well, and the compound was diluted 11 times in a 3-fold gradient starting from 10 mM, and prepared a 10-fold drug solution. Then 10 μL was taken and added to 90 μL of cell culture medium (DMSO final concentration was 0.1%, v/v). After 72 hours of treatment, 100 μL of CellTiter-Glo (Promega, Cat#G7572) was added, cells were lysed by shaking on an orbital shaker for 5 minutes. The cell plate was then left at room temperature for 20 minutes to stabilize the luminescence signal. Luminescence values were read with a SpectraMax Multilabel Microplate Reader (MD, 2104-0010A).
Data were analyzed using GraphPad Prism 5.0 software, and nonlinear S-curve regression was used to fit the data to derive dose-response curves from which IC50 values were calculated.
Cell Viability (%)=(Lumdrug to be tested−Lumculture medium control)/(Lumcell control−Lumculture medium control)×100%.

[3] = tested on: HCC827 cells (MET overexpression); experiment: Synergistic killing of tumor cells with AZD9291, HCC827; format: cell-based, human; settings: 72 hours
Method: (§10) Human lung cancer cells H1975 cells (L858R and T790M double mutations) and HCC827 cells were incubated in an incubator (37° C., 5% CO2) with 1640 medium plus 10% FBS (fetal bovine serum) and 1% P/S (penicillin/ streptomycin) for culture. In the assay of the compound, H1975 cells or HCC827 were plated in a 96-well plate (Corning) at a concentration of 3000 cells/195 μL per well, and the compound was serially diluted to 11 concentrations starting from 10 mM, and 4 μL of each concentration was added into 96 μL of 1640 cluture medium and diluted to form 25× compound, then 5 μL was took and added to 195 μL of cell culture medium (DMSO final concentration is 0.1%, v/v). After 72 hours of treatment, 35 μL of CellTiter-Blue® (purchased from Promega) was added. The fluorescent signal was measured on Flex Station3 (Molecular Devices) according to the operating procedure of the manual, and the IC50 value of inhibition on cell proliferation of the compound was calculated using GraphPad Prism5.0. The Chou-Talalay combination index method was used to calculate the effect of the combination. The combination index (Col) value 0.9≤CI≤1.1 is an additive effect, 0.8≤CI<0.9 is a low synergistic effect, 0.6≤CI<0.8 is a moderate synergistic effect, and 0.4 <CI<0.6 is highly synergistic, and 0.2≤CI<0.4 is strong synergistic.

[4] = tested on: H1975 cells (L858R and T790M double mutations); experiment: Synergistic killing of tumor cells with AZD9291, H1975; format: cell-based, human; settings: 72 hours
Method: as §10

Ba/F3-TEL-CSF1R = experiment: Cell viability assay against Ba/F3-TEL-CSF1R cells (CellTiter-Glo); format: cell-based; settings: 72 hours, read-out: Baf3-TEL CSF1R IC50
Method: as §6, with “Starting” for “In the assay of compounds, SNU-5 and Ba/F3-TEL-CSF1R cells were plated in 96-well cell culture plates (Corning, Cat# 3610) at a concentration of 3000 cells/100 μL per well, and cultured overnight. Starting”
as §7, §8, §9

CSF1R, sequence (P07333 20-972): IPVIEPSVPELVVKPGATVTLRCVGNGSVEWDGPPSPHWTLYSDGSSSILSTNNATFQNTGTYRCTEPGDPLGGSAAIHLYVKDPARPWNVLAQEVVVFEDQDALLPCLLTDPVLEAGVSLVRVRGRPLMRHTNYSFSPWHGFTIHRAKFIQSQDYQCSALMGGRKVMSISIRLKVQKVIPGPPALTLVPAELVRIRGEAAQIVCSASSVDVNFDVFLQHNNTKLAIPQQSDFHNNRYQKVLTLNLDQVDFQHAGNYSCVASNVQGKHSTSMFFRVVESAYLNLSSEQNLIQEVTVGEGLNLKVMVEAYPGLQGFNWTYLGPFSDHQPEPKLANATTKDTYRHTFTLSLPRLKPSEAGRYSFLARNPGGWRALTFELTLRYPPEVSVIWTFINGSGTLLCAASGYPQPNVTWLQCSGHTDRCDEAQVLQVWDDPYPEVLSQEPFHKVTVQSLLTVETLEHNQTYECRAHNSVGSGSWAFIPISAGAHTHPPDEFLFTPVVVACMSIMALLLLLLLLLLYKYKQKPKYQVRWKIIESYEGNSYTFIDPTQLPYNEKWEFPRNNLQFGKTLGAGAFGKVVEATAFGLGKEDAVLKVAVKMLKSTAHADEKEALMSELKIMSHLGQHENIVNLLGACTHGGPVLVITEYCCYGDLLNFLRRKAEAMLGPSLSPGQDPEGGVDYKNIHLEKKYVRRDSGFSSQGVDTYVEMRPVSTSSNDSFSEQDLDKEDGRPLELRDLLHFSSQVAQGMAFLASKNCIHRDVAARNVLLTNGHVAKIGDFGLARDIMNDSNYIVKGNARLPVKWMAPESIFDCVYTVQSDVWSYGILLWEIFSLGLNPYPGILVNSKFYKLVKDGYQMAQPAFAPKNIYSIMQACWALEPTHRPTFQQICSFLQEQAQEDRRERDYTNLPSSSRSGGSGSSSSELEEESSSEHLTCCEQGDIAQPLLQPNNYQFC
SRC, sequence (P12931 whole entry, looked up): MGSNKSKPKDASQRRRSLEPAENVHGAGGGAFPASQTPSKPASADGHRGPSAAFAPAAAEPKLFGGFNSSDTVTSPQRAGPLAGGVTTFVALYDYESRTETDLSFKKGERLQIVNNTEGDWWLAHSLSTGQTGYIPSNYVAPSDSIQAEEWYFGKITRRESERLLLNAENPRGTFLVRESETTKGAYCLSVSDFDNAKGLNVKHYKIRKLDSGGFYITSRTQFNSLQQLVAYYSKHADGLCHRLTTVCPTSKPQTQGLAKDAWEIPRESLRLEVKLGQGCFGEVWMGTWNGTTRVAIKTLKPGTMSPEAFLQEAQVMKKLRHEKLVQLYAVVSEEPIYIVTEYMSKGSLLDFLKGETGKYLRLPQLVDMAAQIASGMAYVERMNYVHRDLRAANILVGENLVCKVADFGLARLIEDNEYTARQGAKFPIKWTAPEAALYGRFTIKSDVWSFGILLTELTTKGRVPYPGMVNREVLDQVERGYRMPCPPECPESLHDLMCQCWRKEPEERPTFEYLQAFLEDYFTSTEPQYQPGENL
c-Met, sequence (P08581 25-1390): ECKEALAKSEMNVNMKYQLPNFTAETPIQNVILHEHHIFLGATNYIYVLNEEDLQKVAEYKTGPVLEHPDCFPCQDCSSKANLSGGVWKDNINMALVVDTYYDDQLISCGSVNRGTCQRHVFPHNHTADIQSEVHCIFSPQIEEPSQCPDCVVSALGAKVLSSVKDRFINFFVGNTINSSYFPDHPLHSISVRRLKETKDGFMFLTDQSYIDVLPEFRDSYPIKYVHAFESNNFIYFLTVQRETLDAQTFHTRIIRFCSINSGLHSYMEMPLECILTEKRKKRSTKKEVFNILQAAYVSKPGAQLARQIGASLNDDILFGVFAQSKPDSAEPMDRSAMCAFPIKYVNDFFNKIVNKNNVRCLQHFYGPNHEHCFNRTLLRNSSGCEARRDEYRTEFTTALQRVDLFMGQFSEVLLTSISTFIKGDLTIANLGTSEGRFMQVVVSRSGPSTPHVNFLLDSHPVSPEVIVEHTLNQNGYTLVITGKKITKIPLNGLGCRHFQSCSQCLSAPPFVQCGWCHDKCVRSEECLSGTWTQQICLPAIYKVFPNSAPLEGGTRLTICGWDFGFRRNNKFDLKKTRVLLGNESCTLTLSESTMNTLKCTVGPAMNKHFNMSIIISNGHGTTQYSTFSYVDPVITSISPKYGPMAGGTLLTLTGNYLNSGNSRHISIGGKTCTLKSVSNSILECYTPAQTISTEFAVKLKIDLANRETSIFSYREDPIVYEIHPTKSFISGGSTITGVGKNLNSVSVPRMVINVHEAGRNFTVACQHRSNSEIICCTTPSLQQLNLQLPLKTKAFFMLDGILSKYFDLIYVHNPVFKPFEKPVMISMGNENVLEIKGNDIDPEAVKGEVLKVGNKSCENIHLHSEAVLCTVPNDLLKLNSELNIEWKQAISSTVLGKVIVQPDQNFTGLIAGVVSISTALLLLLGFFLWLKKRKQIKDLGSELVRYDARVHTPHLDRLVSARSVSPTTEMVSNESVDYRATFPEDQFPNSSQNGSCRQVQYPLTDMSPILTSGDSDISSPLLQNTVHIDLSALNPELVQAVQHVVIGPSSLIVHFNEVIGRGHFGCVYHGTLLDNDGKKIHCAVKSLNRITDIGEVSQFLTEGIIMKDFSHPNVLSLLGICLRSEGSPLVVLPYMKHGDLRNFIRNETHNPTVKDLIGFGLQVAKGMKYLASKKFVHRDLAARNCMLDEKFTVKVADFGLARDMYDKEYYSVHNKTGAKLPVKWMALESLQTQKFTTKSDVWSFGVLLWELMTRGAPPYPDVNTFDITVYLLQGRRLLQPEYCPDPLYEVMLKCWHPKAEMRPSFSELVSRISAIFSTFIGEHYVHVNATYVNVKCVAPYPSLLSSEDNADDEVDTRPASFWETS

SMILES | IC50 (c-Met) [nM] | IC50 (SRC) [nM] | IC50 (CSF1R) [nM] | Kp ([1]; Sprague-Dawley (SD), rat, brain / plasma, oral, 10 mg/kg gavage, 0.25, 0.5, 2 and 6 hours, read-out: drug brain/blood distribution ratio) | entry into brain tissue ([1]; 10 mg/kg gavage) | IC50 (SNU-5 cells) [nM] | pharmacokinetic properties [2] | inhibitory effect on HCC827 cells (HCC827 cells) | combination effect with AZD9291 (Chou-Talalay combination index) [3] | combination effect with AZD9291 (Chou-Talalay combination index) [4] | IC50 (Ba/F3-TEL-CSF1R) [nM]
C[C@H]1COC(=O)c2cnn3ccc(nc23)N[C@H](C)c2cc(F)ccc2O1 [Comparative Compound 42, reference compound] | 85 | 289 | > 10000 | – | – | – | – | – | – | – | –
CCN1Cc2c(ccc(F)c2C#N)O[C@@H](C)COC(=O)c2cnn3ccc1nc23 [Example 1, (S, 1^3E, 1^4E)-2-ethyl-45-fluoro-6-methyl-9-oxo-5,8-dioxa-2-aza-1(5,3)-pyrazolo[1,5-a]pyrimidine-4(1,2)-benzocyclononane-4^6-carbonitrile] | 0.93 | 15 | 0.42 | 1.16 to 6.4 | can enter the brain tissue | 1.83 | better pharmacokinetic and pharmacokinetic properties | very obvious inhibitory effect | moderate to high synergistic effect | moderate to high synergistic effect | 3.4
CCN1Cc2c(ccc(F)c2C#N)O[C@@H](C)COC(=O)c2c(N)nn3ccc1nc23 [Example 2, (S, 1^3E, 1^4E)-1^2-amino-2-ethyl-4^5-fluoro-6-methyl-9-oxo-5,8-dioxa-2-aza-1(5,3)-pyrazolo[1,5-a]pyrimidine-4(1,2)-benzocyclononane-4^6 carbonitrile] | 1.8 | 30 | 2.2 | – | – | 3.36 | better pharmacokinetic and pharmacokinetic properties | – | – | – | 7
CCN1Cc2c(ccc(F)c2C#N)O[C@@H](C)CNC(=O)c2c(N)nn3ccc1nc23 [TPX-0022, reference compound] | – | 7.5 | – | – | – | 6.26 | – | – | – | – | –
